Assay results: BindingDB's records for doi:10.1021/acs.jmedchem.7b00359 (AstraZeneca, 2017)

Molecular target: T1, Zinc finger and BTB domain-containing protein 16 (Homo sapiens, UniProt Q05516)
T1 sequence (Q05516 whole entry): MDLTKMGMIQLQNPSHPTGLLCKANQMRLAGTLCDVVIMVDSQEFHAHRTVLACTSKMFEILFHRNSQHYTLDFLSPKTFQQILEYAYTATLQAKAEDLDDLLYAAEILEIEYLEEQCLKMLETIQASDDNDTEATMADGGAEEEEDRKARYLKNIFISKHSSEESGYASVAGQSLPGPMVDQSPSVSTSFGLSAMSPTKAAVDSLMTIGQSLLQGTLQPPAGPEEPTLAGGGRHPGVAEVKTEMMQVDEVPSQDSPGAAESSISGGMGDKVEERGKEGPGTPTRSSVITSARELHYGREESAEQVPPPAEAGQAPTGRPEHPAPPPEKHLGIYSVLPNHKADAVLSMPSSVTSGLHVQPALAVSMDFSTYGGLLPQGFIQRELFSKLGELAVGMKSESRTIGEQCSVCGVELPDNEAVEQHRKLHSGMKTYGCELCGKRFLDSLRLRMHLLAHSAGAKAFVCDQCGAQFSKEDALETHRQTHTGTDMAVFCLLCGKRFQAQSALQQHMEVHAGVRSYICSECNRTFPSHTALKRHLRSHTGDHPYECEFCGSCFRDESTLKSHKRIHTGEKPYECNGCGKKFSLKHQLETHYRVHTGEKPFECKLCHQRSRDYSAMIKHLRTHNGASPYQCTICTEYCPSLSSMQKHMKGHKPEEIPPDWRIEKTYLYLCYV
Assay: ChEBML_1665992
Source text: (§1) Inhibition of GAL4 DNA binding domain fused PLZF BTB domain (unknown origin) expressed in HEK 293T/17 cells after 24 hrs by Bright-Glo luciferase cell reporter assay

IC50 [µM] | Compound
> 30 | N#Cc1cnn2c3cc(nc12)N1C[C@H](C[C@H]1CO)OC/C=C/COc1cc(cc2c1NC(=O)CC2)N3

Molecular target: T1, Zinc finger and BTB domain-containing protein 16
Assay: as §1

Compound | IC50 [µM]
O=C(O)C[C@@H]1C[C@H]2CN1c1cc(n3ncc(Cl)c3n1)Nc1cc3c(c(c1)OC/C=C/CO2)N(CC1CC(F)(F)C1)C(=O)CC3 | > 30
Cc1ccccc1CN1C(=O)CCc2cc3cc(c21)OC/C=C/CO[C@H]1C[C@@H](CO)N(C1)c1cc(n2ncc(Cl)c2n1)N3 | > 30
COc1cccc(CN2C(=O)CCc3cc4cc(c32)OC/C=C/CO[C@H]2C[C@@H](CO)N(C2)c2cc(n3ncc(Cl)c3n2)N4)c1 | > 30
COc1cccc(CN2C(=O)CCc3cc4cc(c32)OC/C=C/CO[C@H]2C[C@@H](CO)N(C2)c2cc(n3ncc(C#N)c3n2)N4)c1 | > 30
N#Cc1cnn2c3cc(nc12)N1C[C@H](C[C@H]1CO)OCCCCOc1cc(cc2c1NC(=O)CC2)N3 | > 30
O=C1CCc2cc3cc(c2N1)OCCCCO[C@H]1C[C@@H](CO)N(C1)c1cc(n2ncc(Cl)c2n1)N3 | > 30
O=C1CCc2cc3cc(c2N1)OC/C=C/CO[C@H]1C[C@@H](CO)N(C1)c1cc(n2ncc(Cl)c2n1)N3 | > 30
Cc1ccc(CN2C(=O)CCc3cc4cc(c32)OC/C=C/CO[C@H]2C[C@@H](CO)N(C2)c2cc(n3ncc(Cl)c3n2)N4)cc1 | > 30
O=C1CCc2cc3cc(c2N1CC1CC(F)(F)C1)OC/C=C/CO[C@H]1C[C@@H](CO)N(C1)c1cc(n2ncc(Cl)c2n1)N3 | > 30
O=C1CCc2cc3cc(c2N1CCCN1CCOCC1)OC/C=C/CO[C@H]1C[C@@H](CO)N(C1)c1cc(n2ncc(Cl)c2n1)N3 | > 30

The remaining lines, values ahead:

IC50 [µM] | Compound
> 30 | O=C1CCc2cc3cc(c2N1CC1CC1)OC/C=C/CO[C@H]1C[C@@H](CO)N(C1)c1cc(n2ncc(Cl)c2n1)N3
> 30 | O=C1CCc2cc3cc(c2N1)OCCCCO[C@H]1C[C@@H](CO)N(C1)c1cc(n2nccc2n1)N3
> 30 | O=C1CCc2cc3cc(c2N1Cc1ccccc1)OC/C=C/CO[C@H]1C[C@@H](CO)N(C1)c1cc(n2ncc(Cl)c2n1)N3
> 30 | CN1C(=O)CCc2cc3cc(c21)OC/C=C/CO[C@H]1C[C@@H](CO)N(C1)c1cc(n2ncc(Cl)c2n1)N3
> 30 | O=C1CCc2cc3cc(c2N1Cc1ccncc1)OC/C=C/CO[C@H]1C[C@@H](CO)N(C1)c1cc(n2ncc(Cl)c2n1)N3
> 30 | N#Cc1cnn2c3cc(nc12)N1CC[C@@H](C1)OCCCCOc1cc(cc2c1NC(=O)CC2)N3
